This note sets out measurements from ChEMBL document CHEMBL4270599, “Synthesis of a 3'-C-ethynyl-β-d-ribofuranose purine nucleoside library: Discovery of C7-deazapurine analogs as potent antiproliferative nucleosides” (Eur J Med Chem, 2018).

Common to all, as to assay type: functional
One assay relates to SF-268. Nature of the assay: Growth inhibition of human SF268 cells assessed as cell growth at 10^-4 M incubated for 48 hrs by sulforhodamine B assay relative to control. The settings on record: SF-268, 48 h, read-out: Activity.
Assay [1] has as its system HOP-62. Nature of the assay: Growth inhibition of human HOP62 cells assessed as cell growth at 10^-5 M incubated for 48 hrs by sulforhodamine B assay relative to control. The settings on record: HOP-62, 48 h, read-out: Activity.
A further assay has as its system UO-31. Nature of the assay: Growth inhibition of human UO31 cells assessed as cell growth at 10^-5 M incubated for 48 hrs by sulforhodamine B assay relative to control. The settings on record: UO-31, 48 h, read-out: Activity.
A further assay concerns UACC-62. Nature of the assay: Growth inhibition of human UACC62 cells assessed as cell growth at 10^-4 M incubated for 48 hrs by sulforhodamine B assay relative to control. The settings on record: UACC-62, 48 h, read-out: Activity. (In general: Sulforhodamine B stains cellular protein and so reports cell mass.)
Assay [2] concerns SF-539. The assay is described as follows: Growth inhibition of human SF539 cells assessed as cell growth at 10^-5 M incubated for 48 hrs by sulforhodamine B assay relative to control. The settings on record: SF-539, 48 h, read-out: Activity.
For a further assay, the system named is A498. Nature of the assay: Growth inhibition of human A498 cells assessed as cell growth at 10^-5 M incubated for 48 hrs by sulforhodamine B assay relative to control. The settings on record: A498, 48 h, read-out: Activity.
For assay [3], the system named is COLO 205. Nature of the assay: Growth inhibition of human COLO205 cells assessed as cell growth at 10^-4 M incubated for 48 hrs by sulforhodamine B assay relative to control. The settings on record: COLO 205, 48 h, read-out: Activity.
Assay [4] deals with HOP-62. The assay is described as follows: Growth inhibition of human HOP62 cells assessed as cell growth at 10^-4 M incubated for 48 hrs by sulforhodamine B assay relative to control. The settings on record: HOP-62, 48 h, read-out: Activity.
The next assay deals with EKVX. Nature of the assay: Growth inhibition of human EKVX cells assessed as cell growth at 10^-4 M incubated for 48 hrs by sulforhodamine B assay relative to control. The settings on record: read-out: Activity.
Another assay relates to M14. Nature of the assay: Growth inhibition of human M14 cells assessed as cell growth at 10^-4 M incubated for 48 hrs by sulforhodamine B assay relative to control. The settings on record: M14, 48 h, read-out: Activity.
Assay [5] concerns NCI-H522. Nature of the assay: Growth inhibition of human NCI-H522 cells assessed as cell growth at 10^-5 M incubated for 48 hrs by sulforhodamine B assay relative to control. The settings on record: NCI-H522, 48 h, read-out: Activity.
The subject of a further assay is SNB-19. Nature of the assay: Growth inhibition of human SNB19 cells assessed as cell growth at 10^-4 M incubated for 48 hrs by sulforhodamine B assay relative to control. The settings on record: SNB-19, 48 h, read-out: Activity.
The test system of another assay is OVCAR-8. Nature of the assay: Growth inhibition of human OVCAR8 cells assessed as cell growth at 10^-4 M incubated for 48 hrs by sulforhodamine B assay relative to control. The settings on record: OVCAR-8, 48 h, read-out: Activity.
A further assay has as its system 786-0. The assay is described as follows: Growth inhibition of human 786-0 cells assessed as cell growth at 10^-4 M incubated for 48 hrs by sulforhodamine B assay relative to control. The settings on record: 786-0, 48 h, read-out: Activity.
Assay [6] relates to LOX IMVI. The assay is described as follows: Growth inhibition of human LOXIMVI cells assessed as cell growth at 10^-5 M incubated for 48 hrs by sulforhodamine B assay relative to control. The settings on record: read-out: Activity.
The next assay concerns RPMI-8226. Nature of the assay: Growth inhibition of human RPMI8226 cells assessed as cell growth at 10^-4 M incubated for 48 hrs by sulforhodamine B assay relative to control. The settings on record: RPMI-8226, 48 h, read-out: Activity.
The test system of a further assay is HOP-92. The assay is described as follows: Growth inhibition of human HOP92 cells assessed as cell growth at 10^-4 M incubated for 48 hrs by sulforhodamine B assay relative to control. The settings on record: HOP-92, 48 h, read-out: Activity.
In the next assay the test system is A549. The assay is described as follows: Growth inhibition of human A549/ATCC cells assessed as cell growth at 10^-5 M incubated for 48 hrs by sulforhodamine B assay relative to control. The settings on record: A549, 48 h, read-out: Activity.
The next assay deals with UACC-257. The assay is described as follows: Growth inhibition of human UACC257 cells assessed as cell growth at 10^-4 M incubated for 48 hrs by sulforhodamine B assay relative to control. The settings on record: UACC-257, 48 h, read-out: Activity.
The subject of another assay is IGROV-1. The assay is described as follows: Growth inhibition of human IGROV1 cells assessed as cell growth at 10^-6 M incubated for 48 hrs by sulforhodamine B assay relative to control. The settings on record: IGROV-1, 48 h, read-out: Activity.
Another assay relates to Malme-3M. The assay is described as follows: Growth inhibition of human MALME-3M cells assessed as cell growth at 10^-4 M incubated for 48 hrs by sulforhodamine B assay relative to control. The settings on record: read-out: Activity.
Assay [7] deals with LOX IMVI. Nature of the assay: Growth inhibition of human LOXIMVI cells assessed as cell growth at 10^-4 M incubated for 48 hrs by sulforhodamine B assay relative to control. The settings on record: read-out: Activity.
Another assay deals with SF-295. Nature of the assay: Growth inhibition of human SF295 cells assessed as cell growth at 10^-4 M incubated for 48 hrs by sulforhodamine B assay relative to control. The settings on record: SF-295, 48 h, read-out: Activity.
Assay [8] has as its system MDA-MB-468. Nature of the assay: Growth inhibition of human MDA-MB-468 cells assessed as cell growth at 10^-5 M incubated for 48 hrs by sulforhodamine B assay relative to control. The settings on record: MDA-MB-468, 48 h, read-out: Activity.
For the next assay, the system named is SK-MEL-2. The assay is described as follows: Growth inhibition of human SK-MEL-2 cells assessed as cell growth at 10^-5 M incubated for 48 hrs by sulforhodamine B assay relative to control. The settings on record: SK-MEL-2, 48 h, read-out: Activity.
Assay [9] concerns COLO 205. Nature of the assay: Growth inhibition of human COLO205 cells assessed as cell growth at 10^-6 M incubated for 48 hrs by sulforhodamine B assay relative to control. The settings on record: COLO 205, 48 h, read-out: Activity.
In the next assay the test system is Hs-578T. Nature of the assay: Growth inhibition of human Hs 578T cells assessed as cell growth at 10^-4 M incubated for 48 hrs by sulforhodamine B assay relative to control. The settings on record: read-out: Activity.
Assay [10] has as its system MDA-MB-468. Nature of the assay: Growth inhibition of human MDA-MB-468 cells assessed as cell growth at 10^-4 M incubated for 48 hrs by sulforhodamine B assay relative to control. The settings on record: MDA-MB-468, 48 h, read-out: Activity.
In a further assay the test system is NCI-H23. The assay is described as follows: Growth inhibition of human NCI-H23 cells assessed as cell growth at 10^-4 M incubated for 48 hrs by sulforhodamine B assay relative to control. The settings on record: NCI-H23, 48 h, read-out: Activity.
Assay [11] has as its system SF-539. The assay is described as follows: Growth inhibition of human SF539 cells assessed as cell growth at 10^-4 M incubated for 48 hrs by sulforhodamine B assay relative to control. The settings on record: SF-539, 48 h, read-out: Activity.
For assay [12], the system named is RXF 393. The assay is described as follows: Growth inhibition of human RXF393 cells assessed as cell growth at 10^-4 M incubated for 48 hrs by sulforhodamine B assay relative to control. The settings on record: RXF 393, 48 h, read-out: Activity.
The test system of assay [13] is RXF 393. Nature of the assay: Growth inhibition of human RXF393 cells assessed as cell growth at 10^-5 M incubated for 48 hrs by sulforhodamine B assay relative to control. The settings on record: RXF 393, 48 h, read-out: Activity.
The test system of the next assay is SK-MEL-5. Nature of the assay: Growth inhibition of human SK-MEL-5 cells assessed as cell growth at 10^-5 M incubated for 48 hrs by sulforhodamine B assay relative to control. The settings on record: SK-MEL-5, 48 h, read-out: Activity.
For assay [14], the system named is NCI-H522. Nature of the assay: Growth inhibition of human NCI-H522 cells assessed as cell growth at 10^-4 M incubated for 48 hrs by sulforhodamine B assay relative to control. The settings on record: NCI-H522, 48 h, read-out: Activity.

Each structure is given as a SMILES string.

As to `C#C[C@@]1(O)[C@@H](CO)O[C@@H](n2cc(I)c3c(N)ncnc32)[C@@H]1O`, in the assay on SF-268, the growth at 100 µM is -7%.

As to `C#C[C@@]1(O)[C@@H](CO)O[C@@H](n2ccc3c(N)ncnc32)[C@@H]1O`, the growth at 10 µM is -9% in the assay with HOP-62 [1]; -55% with UO-31; -48% in the assay with SF-539 [2]; -60% in the assay with A498; -21% with NCI-H522 [5]; -87% in the assay on LOX IMVI [6]. The growth at 10 µM in the assay with A549 is 4%; in the assay on MDA-MB-468 [8], -58%; in the assay with SK-MEL-2, -15%; in the assay on RXF 393 [13], -45%; in the assay with SK-MEL-5, -95%. Further, the growth at 100 µM with UACC-62 is -65%; in the assay with COLO 205 [3] it was -72%; with HOP-62 [4], -10%; with SF-268, -8%; in the assay on EKVX, -26%; in the assay with M14, -88%. In addition, the growth at 100 µM in the assay with SNB-19 is -32%; in the assay on OVCAR-8 it was -65%; in the assay on 786-0, -95%; in the assay with RPMI-8226 it was 2%; in the assay with HOP-92, -87%; with UACC-257, -62%. For the same molecule, the growth at 100 µM with Malme-3M was -76%; with LOX IMVI [7] it was -92%; in the assay on SF-295, -44%; with Hs-578T it was 2%; in the assay on MDA-MB-468 [10], -62%; with NCI-H23, -35%. The figures for the growth at 100 µM in the assay on SF-539 [11], with RXF 393 [12] and with NCI-H522 [14] were -82%, -92% and -42%, respectively. The growth at 1 µM in the assay with IGROV-1 stood at 63%; in the assay with COLO 205 [9], 40%.

Take `C#C[C@@]1(O)[C@@H](CO)O[C@@H](n2cc(F)c3c(N)ncnc32)[C@@H]1O`: the growth at 10 µM is -4% in the assay on HOP-62 [1]; -36% in the assay with UO-31; -23% with SF-539 [2]; -77% in the assay on A498; -24% in the assay on NCI-H522 [5]; -78% with LOX IMVI [6]. The growth at 10 µM is -26% in the assay on A549; -57% in the assay with MDA-MB-468 [8]; -26% in the assay on SK-MEL-2; -46% in the assay on RXF 393 [13]; -89% in the assay on SK-MEL-5. Besides, the growth at 100 µM in the assay with UACC-62 is -78%; with COLO 205 [3], -63%; in the assay on HOP-62 [4], -15%; with EKVX, -10%; in the assay with M14 it was -47%; in the assay on SNB-19 it was -45%. Further, the growth at 100 µM in the assay on OVCAR-8 is -27%; in the assay on 786-0, -36%; with RPMI-8226, -21%; with HOP-92, -47%; with UACC-257, -30%; in the assay with Malme-3M it was -47%. Moreover, the growth at 100 µM in the assay with LOX IMVI [7] is -90%; in the assay with SF-295, -74%; in the assay with Hs-578T, 8%; in the assay on MDA-MB-468 [10], -68%; in the assay on NCI-H23, -25%; in the assay on SF-539 [11], -39%. The growth at 100 µM is -49% in the assay on RXF 393 [12] and -40% with NCI-H522 [14]. Further, the growth at 1 µM in the assay with IGROV-1 came to 6%; in the assay on COLO 205 [9], 7%.
